Test results reported in ChEMBL document CHEMBL1155565, “Apramides A-G, novel lipopeptides from the marine cyanobacterium Lyngbya majuscula” (J Nat Prod, 2000).
In brackets after ≈: the same amount, converted by molar mass. Activity calls are given as the source filed them. No cut-off for these calls is given here. Square brackets hold non-standard residues; d marks the D form. Peptide text beside a SMILES is read from it. * marks the point of attachment. Octanoyl(2R-Me,7,8-dehydro) = C=CCCCC[C@@H](C)C(=O)*; Oct7ynoyl(2R-Me) = C#CCCCC[C@@H](C)C(=O)*; NMeY = CN[C@@H](Cc1ccc(O)cc1)C(=O)O; Oct(7)ynoyl = C#CCCCCCC(=O)*; NMeV = CN[C@H](C(=O)O)C(C)C; X2 = c1csc([C@@H]2CCCN2*)n1; NMeA = CN[C@@H](C)C(=O)O; X1 = CN(Cc1nccs1)*

How the values were obtained:
KB = experiment: Cytotoxicity against human KB cells; assay type: functional, cell-based
LoVo = experiment: Cytotoxicity against human LoVo cells; assay type: functional, cell-based
[1] = Inhibition of trypsin
[2] = Inhibition of chymotrypsin
Papain (Carica papaya) = molecular target: T1, Papain (Carica papaya) (UniProt P00784); experiment: Inhibition of Papaya papain
T1 sequence (whole entry): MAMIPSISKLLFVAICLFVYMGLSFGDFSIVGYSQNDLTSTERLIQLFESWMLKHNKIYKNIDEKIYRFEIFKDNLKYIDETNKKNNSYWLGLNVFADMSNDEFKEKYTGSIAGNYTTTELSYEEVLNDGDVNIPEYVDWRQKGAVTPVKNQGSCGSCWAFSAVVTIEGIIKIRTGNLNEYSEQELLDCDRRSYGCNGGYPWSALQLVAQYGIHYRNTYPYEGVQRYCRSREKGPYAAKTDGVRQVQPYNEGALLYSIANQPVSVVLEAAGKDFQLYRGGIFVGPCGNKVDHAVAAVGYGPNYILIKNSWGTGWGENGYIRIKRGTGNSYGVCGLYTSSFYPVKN

[3] = Inhibition of elastase
[4] = molecular target: Prothrombin (Homo sapiens) (UniProt P00734); experiment: Inhibition of thrombin
[5] = Induction of elastase activity

SMILES | Activity (KB) | Activity (LoVo) | also measured
C=CCCCC[C@@H](C)C(=O)N(C)[C@@H](C)C(=O)N(C)[C@H](C(=O)N1CCC[C@H]1C(=O)N(C)[C@H](C(=O)N(C)[C@H](C(=O)N(C)[C@@H](Cc1ccc(OC)cc1)C(=O)N1CCC[C@H]1c1nccs1)C(C)C)C(C)C)C(C)C ({Octanoyl(2R-Me,7,8-dehydro)}-[NMeA][NMeV]P[NMeV][NMeV][NMeY](Me)-X2) | inactive | inactive | –
C#CCCCC[C@@H](C)C(=O)N(C)[C@@H](C)C(=O)N(C)[C@H](C(=O)N1CCC[C@H]1C(=O)N(C)[C@H](C(=O)N(C)[C@H](C(=O)N(C)[C@@H](Cc1ccc(OC)cc1)C(=O)N1CCC[C@H]1c1nccs1)C(C)C)C(C)C)C(C)C ({Oct7ynoyl(2R-Me)}-[NMeA][NMeV]P[NMeV][NMeV][NMeY](Me)-X2) | inactive | inactive | –
C#CCCCCCC(=O)N(C)[C@@H](C)C(=O)N(C)[C@H](C(=O)N1CCC[C@H]1C(=O)N(C)[C@H](C(=O)N(C)[C@H](C(=O)N(C)[C@@H](Cc1ccc(OC)cc1)C(=O)N(C)Cc1nccs1)C(C)C)C(C)C)C(C)C ({Oct(7)ynoyl}-[NMeA][NMeV]P[NMeV][NMeV][NMeY](Me)-X1) | inactive | inactive | –
C#CCCCC[C@@H](C)C(=O)N(C)[C@@H](C)C(=O)N(C)[C@H](C(=O)N1CCC[C@H]1C(=O)N(C)[C@H](C(=O)N(C)[C@H](C(=O)N(C)[C@@H](Cc1ccc(OC)cc1)C(=O)N(C)Cc1nccs1)C(C)C)C(C)C)C(C)C ({Oct7ynoyl(2R-Me)}-[NMeA][NMeV]P[NMeV][NMeV][NMeY](Me)-X1) | inactive | inactive | Activity [1]: Active; Activity [2]: Active; Activity (Papain (Carica papaya)): Active; Activity [3]: inactive; Activity [4]: Active; Activity [5]: Active
C#CCCCCCC(=O)N(C)[C@@H](C)C(=O)N(C)[C@H](C(=O)N1CCC[C@H]1C(=O)N(C)[C@H](C(=O)N(C)[C@H](C(=O)N(C)[C@@H](Cc1ccc(OC)cc1)C(=O)N1CCC[C@H]1c1nccs1)C(C)C)C(C)C)C(C)C ({Oct(7)ynoyl}-[NMeA][NMeV]P[NMeV][NMeV][NMeY](Me)-X2) | inactive | inactive | –
C=CCCCC[C@@H](C)C(=O)N(C)[C@@H](C)C(=O)N(C)[C@H](C(=O)N1CCC[C@H]1C(=O)N(C)[C@H](C(=O)N(C)[C@H](C(=O)N(C)[C@@H](Cc1ccc(OC)cc1)C(=O)N(C)Cc1nccs1)C(C)C)C(C)C)C(C)C ({Octanoyl(2R-Me,7,8-dehydro)}-[NMeA][NMeV]P[NMeV][NMeV][NMeY](Me)-X1) | inactive | inactive | –
C#CCCCC[C@@H](C)C(=O)N(C)[C@@H](C)C(=O)N(C)[C@H](C(=O)N(C)[C@H](C(=O)N(C)[C@H](C(=O)N(C)[C@H](C(=O)N1CCC[C@H]1c1nccs1)C(C)C)C(C)C)C(C)C)C(C)C [APRAMIDE G] ({Oct7ynoyl(2R-Me)}-[NMeA][NMeV][NMeV][NMeV][NMeV]-X2) | – | – | IC50 (KB): 0.033 µg/mL (≈ 0.0398 µM); IC50 (LoVo): 0.011 µg/mL (≈ 0.0133 µM)
